Patent publication US12398142B2, “Abelson non-tyrosine kinase compounds for the treatment of neurodegenerative diseases” (Emory University, priority 2019, dated 2025)
Read-outs that look alike come from different tables or passages of the source.

Assays:
[1] = target: CYP3A4 (Homo sapiens (Human), UniProt P08684); test: CYP3A4 IC50; format: in vitro ADME; settings: unit given as mM
[2] = target: CYP2D6 (Homo sapiens (Human), UniProt P10635); test: CYP2D6 IC50; format: in vitro ADME; settings: unit given as mM
[3] = target: ABL1 (Homo sapiens (Human), UniProt P00519); test: Kinase profiling, ABL1 10-dose IC50; format: biochemical
[4] = target: hERG (Homo sapiens (Human), UniProt Q12809); test: hERG profiling, fluorescent Tracer binding competition (FP); settings: for SI / selectivity ratio at 4 h: human, pH 7.5
Procedure: Compounds were prepared as 10 mM DMSO stock and stored at −80° C.
Assay Format: The assay is based on the competition of fluorescently labeled Tracer binding to the membrane preparation containing hERG.
Assay conditions: 1 nM Predictor™ hERG Tracer Red; 1X Predictor™ hERG Membrane
Assay Procedure: Compounds in DMSO were added into the Membrane mixture by using Acoustic Technology. Tracer was added, and gentled mixed in the dark. FP was measured after 4 hours incubation at room temperature and mP calculated.

[5] = 10 μM ATP, first run (TK3-141, TK3-144, CD-1-002), read-out: Compound IC50 ABL1 Data 1
[6] = 10 μM ATP, first run, average of duplicates, read-out: Compound IC50 ABL1 Avg
[7] = 10 μM ATP, first run, read-out: Compound IC50 ABL1 Data 2
[8] = summary table, read-out: Abl1 IC50
[9] = IC50 of Tracer Binding hERG AVERAGE, first run, average of duplicates
[10] = IC50 of Tracer Binding hERG Data 1, first run, 4 hours incubation
[11] = IC50 of Tracer Binding hERG Data 2, first run
[12] = hERG IC50, summary table, unit given as mM
[13] = 10 μM ATP, second run (CD-1-051, ZD-3-167, CD-1-067), read-out: Compound IC50 ABL1 Data 1
[14] = 10 μM ATP, second run, average of duplicates, read-out: Compound IC50 ABL1 Avg
[15] = 10 μM ATP, second run, read-out: Compound IC50 ABL1 Data 2
[16] = Average hERG (IC50), second run, average
[17] = IC50 of Tracer Binding hERG Data 1, second run
[18] = IC50 of Tracer Binding hERG Data 2, second run

Chain of CYP3A4 (P08684 whole entry, species assumed): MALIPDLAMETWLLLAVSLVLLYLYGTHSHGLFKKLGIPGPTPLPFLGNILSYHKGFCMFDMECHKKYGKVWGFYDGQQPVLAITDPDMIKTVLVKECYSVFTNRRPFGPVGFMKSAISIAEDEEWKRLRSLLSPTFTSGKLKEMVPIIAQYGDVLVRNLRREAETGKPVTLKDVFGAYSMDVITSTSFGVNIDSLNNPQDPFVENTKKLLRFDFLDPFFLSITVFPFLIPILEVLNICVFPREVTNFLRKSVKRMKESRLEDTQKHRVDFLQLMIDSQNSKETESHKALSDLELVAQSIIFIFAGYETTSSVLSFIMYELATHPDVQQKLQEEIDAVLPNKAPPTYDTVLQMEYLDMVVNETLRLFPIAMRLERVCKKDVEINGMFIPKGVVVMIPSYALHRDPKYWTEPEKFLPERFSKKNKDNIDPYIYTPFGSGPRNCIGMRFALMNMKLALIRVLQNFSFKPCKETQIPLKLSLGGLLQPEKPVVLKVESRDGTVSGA
Chain of hERG (Q12809 whole entry): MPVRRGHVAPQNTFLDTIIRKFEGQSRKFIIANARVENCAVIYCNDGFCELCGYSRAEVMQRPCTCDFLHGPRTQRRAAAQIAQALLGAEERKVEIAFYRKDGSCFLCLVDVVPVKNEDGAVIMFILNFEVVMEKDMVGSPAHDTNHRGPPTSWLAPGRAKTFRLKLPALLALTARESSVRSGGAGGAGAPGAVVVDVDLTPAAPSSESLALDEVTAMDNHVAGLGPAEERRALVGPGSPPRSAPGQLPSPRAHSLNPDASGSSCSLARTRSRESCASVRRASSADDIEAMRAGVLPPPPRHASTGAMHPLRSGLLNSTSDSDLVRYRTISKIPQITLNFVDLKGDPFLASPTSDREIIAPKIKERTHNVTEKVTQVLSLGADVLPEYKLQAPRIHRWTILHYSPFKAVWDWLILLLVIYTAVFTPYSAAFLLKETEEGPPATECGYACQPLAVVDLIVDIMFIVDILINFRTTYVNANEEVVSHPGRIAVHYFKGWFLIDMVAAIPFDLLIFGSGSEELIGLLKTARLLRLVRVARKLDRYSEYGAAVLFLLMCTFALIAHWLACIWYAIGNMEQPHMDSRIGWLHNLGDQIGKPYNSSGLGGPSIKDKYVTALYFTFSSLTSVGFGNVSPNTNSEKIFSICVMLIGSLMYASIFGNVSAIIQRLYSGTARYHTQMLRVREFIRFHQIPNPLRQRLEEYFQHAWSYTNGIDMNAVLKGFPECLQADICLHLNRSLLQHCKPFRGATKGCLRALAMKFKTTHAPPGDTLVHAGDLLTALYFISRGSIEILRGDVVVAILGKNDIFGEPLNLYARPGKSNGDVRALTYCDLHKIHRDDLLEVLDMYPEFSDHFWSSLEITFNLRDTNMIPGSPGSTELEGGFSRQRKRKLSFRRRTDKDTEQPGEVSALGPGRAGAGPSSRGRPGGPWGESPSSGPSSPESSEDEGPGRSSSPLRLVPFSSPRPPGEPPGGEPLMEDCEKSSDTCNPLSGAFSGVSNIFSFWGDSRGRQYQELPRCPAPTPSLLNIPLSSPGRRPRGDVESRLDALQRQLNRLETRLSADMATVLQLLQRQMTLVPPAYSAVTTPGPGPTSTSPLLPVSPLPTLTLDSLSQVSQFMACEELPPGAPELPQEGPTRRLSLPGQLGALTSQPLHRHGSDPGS
Chain of CYP2D6 (P10635 whole entry, species assumed): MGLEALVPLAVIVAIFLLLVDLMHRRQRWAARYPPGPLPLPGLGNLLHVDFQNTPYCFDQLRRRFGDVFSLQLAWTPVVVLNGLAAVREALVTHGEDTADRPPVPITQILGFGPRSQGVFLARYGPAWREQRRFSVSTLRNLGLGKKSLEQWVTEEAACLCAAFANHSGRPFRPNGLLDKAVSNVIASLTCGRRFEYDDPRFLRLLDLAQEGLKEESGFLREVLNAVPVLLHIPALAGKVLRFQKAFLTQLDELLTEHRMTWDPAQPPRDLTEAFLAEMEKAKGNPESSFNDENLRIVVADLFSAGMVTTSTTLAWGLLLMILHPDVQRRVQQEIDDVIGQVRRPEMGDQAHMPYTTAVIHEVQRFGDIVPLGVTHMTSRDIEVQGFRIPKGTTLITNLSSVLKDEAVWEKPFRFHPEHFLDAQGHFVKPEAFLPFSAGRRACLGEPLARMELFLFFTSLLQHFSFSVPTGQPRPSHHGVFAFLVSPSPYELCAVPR
Chain of ABL1 (P00519 whole entry): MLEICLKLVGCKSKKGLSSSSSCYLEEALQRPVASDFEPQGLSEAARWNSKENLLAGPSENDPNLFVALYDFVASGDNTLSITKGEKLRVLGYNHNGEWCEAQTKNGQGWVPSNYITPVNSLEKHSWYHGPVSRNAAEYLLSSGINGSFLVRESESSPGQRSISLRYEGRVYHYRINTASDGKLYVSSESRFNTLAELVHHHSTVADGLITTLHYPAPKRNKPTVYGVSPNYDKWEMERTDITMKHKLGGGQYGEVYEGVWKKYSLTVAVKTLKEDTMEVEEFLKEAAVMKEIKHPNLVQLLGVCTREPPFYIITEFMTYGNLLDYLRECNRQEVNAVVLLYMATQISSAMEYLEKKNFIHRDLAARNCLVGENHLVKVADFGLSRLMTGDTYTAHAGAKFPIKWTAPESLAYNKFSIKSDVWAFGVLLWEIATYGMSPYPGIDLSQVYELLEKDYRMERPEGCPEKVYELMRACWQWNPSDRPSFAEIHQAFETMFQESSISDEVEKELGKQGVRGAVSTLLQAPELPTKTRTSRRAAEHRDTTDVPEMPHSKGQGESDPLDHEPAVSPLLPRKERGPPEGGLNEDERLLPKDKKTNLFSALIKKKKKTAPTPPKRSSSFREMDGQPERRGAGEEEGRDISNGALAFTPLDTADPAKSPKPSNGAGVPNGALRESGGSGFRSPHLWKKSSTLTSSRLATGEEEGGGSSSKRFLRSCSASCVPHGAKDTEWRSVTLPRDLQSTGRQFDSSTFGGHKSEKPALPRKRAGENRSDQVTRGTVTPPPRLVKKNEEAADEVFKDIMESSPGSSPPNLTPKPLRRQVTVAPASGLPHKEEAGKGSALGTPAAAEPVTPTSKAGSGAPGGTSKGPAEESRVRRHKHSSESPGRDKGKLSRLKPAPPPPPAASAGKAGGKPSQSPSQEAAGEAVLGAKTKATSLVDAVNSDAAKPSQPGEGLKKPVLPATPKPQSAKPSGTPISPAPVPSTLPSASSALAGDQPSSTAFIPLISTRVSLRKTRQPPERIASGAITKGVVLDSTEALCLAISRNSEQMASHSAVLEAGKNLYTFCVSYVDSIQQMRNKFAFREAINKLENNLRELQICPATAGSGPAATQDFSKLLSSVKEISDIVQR

IC50 [1] [mM]	IC50 [2] [mM]	IC50 [3, 5] [µM]	IC50 [3, 6] [µM]	IC50 [3, 7] [µM]	IC50 [3, 8] [µM]	IC50 [3, 13] [µM]	IC50 [3, 14] [µM]	IC50 [3, 15] [µM]	SMILES	IC50 [4, 9] [µM]	IC50 [4, 10] [µM]	IC50 [4, 11] [µM]	IC50 [4, 12] [µM]	SI [4]	IC50 [4, 16] [µM]	IC50 [4, 17] [µM]	IC50 [4, 18] [µM]	selectivity ratio at 4 h [4]
0.00058	> 0.1								Cc1cn(-c2cc(NC(=O)c3ccc(C)c(Nc4nccc(-c5cccnc5)n4)c3)cc(C(F)(F)F)c2)cn1 [Nilotinib, reference compound]									
0.00801	0.00102	0.00031	0.000297	0.000285	0.0003				Cc1ccc(C(=O)Nc2ccc(CN3CCN(CCO)CC3)c(Cl)c2)cc1C#Cc1cnc2cccnn12 [TK3-141, N-[3-chloro-4-[[4-(2-hydroxyethyl)piperazin-1-yl]methyl]phenyl]-3-(2-imidazo[1,2-b]pyridazin-3-ylethynyl)-4-methyl-benzamide]	0.345	0.138	0.552	0.345	1158				
0.00557	0.03				0.00993	0.011	0.00993	0.00887	Cc1ccc(C(=O)Nc2ccc(CN3CCc4cn[nH]c4C3)c(Cl)c2)cc1C#Cc1cnc2cccnn12 [CD-1-051, N-[3-chloro-4-(1,4,5,7-tetrahydropyrazolo[3,4-c]pyridin-6-ylmethyl)phenyl]-3-(2-imidazo[1,2-b]pyridazin-3-ylethynyl)-4-methyl-benzamide]				5.02	506	5.02	3.84	6.2	506
0.0118	0.00199	0.000413	0.000392	0.000371	0.00039				Cc1ccc(C(=O)Nc2ccc(CN3CCN(CCO)CC3)c(C3CC3)c2)cc1C#Cc1cnc2cccnn12 [TK3-144, N-[3-cyclopropyl-4-[[4-(2-hydroxyethyl)piperazin-1-yl]methyl]phenyl]-3-(2-imidazo[1,2-b]pyridazin-3-ylethynyl)-4-methyl-benzamide]	0.103	0.105	0.102	0.103	263				
0.00728	0.0137				0.0106	0.0111	0.0106	0.0101	Cc1ccc(C(=O)Nc2ccc(CN3Cc4cn[nH]c4C3)c(Cl)c2)cc1C#Cc1cnc2cccnn12 [ZD-3-167, N-[3-chloro-4-(4,6-dihydro-1H-pyrrolo[3,4-c]pyrazol-5-ylmethyl)phenyl]-3-(2-imidazo[1,2-b]pyridazin-3-ylethynyl)-4-methyl-benzamide]				> 10	>943	10.2	> 10	> 10	963
0.0128	0.0248	0.000686	0.000643	0.000601	0.00064				COCCN1CCN(Cc2ccc(NC(=O)c3ccc(C)c(C#Cc4cnc5cccnn45)c3)cc2C2CC2)CC1 [CD-1-002, N-[3-cyclopropyl-4-[[4-(2-methoxyethyl)piperazin-1-yl]methyl]phenyl]-3-(2-imidazo[1,2-b]pyridazin-3-ylethynyl)-4-methyl-benzamide]	0.081	0.062	0.1	0.081	126				
0.00461	0.00339				> 0.03	> 0.03		> 0.03	Cc1ccc(C(=O)Nc2ccc(CN3Cc4ccc(O)cc4C3)c(Cl)c2)cc1C#Cc1cnc2cccnn12 [CD-1-067, N-(3-chloro-4-((5-hydroxyisoindolin-2-yl)methyl)phenyl)-3-(imidazo [1,2-b]pyridazin-3-ylethynyl)-4-methylbenzamide]					<26				
